In PubChem BioAssay (NCI) one finds GI50 and TGI data, which are given here for seven molecules.

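Following 48 hours of exposure in 96-well plates, responses at five concentrations were used to interpolate endpoints linearly. Abbreviation: GI50, concentration required for 50% inhibition of growth. At the TGI there is no net growth.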

Among the test systems are MALME-3M melanoma; CCRF-CEM leukemia; NCI/ADR-RES ovarian; UACC-257 melanoma; SW-620 colon; 786-0 renal; UO-31 renal; A549 NSCLC; RPMI-8226 leukemia; HCC-2998 colon.
What all share (assay): inhibition of tumour cell growth, NCI panel, 48 h

As for `COc1cc(/C=C/C(=O)c2cccc(-n3cc(-c4ccc(Cl)cc4)[nH]c3=O)c2)cc(OC)c1OC`, the GI50 is 18.1 µM with MALME-3M melanoma; 5.43 µM in the experiment on CCRF-CEM leukemia; 2.36 µM with NCI/ADR-RES ovarian; 17.4 µM in the experiment with UACC-257 melanoma; 1.75 µM with SW-620 colon; 2.14 µM with 786-0 renal. The GI50 in the experiment with UO-31 renal was 7.03 µM; in the experiment with A549 NSCLC, 85.2 µM; with RPMI-8226 leukemia, 3.92 µM; in the experiment with HCC-2998 colon it was 2.46 µM. Moreover, the TGI in the experiment on MALME-3M melanoma is greater than 100 µM; in the experiment on CCRF-CEM leukemia, greater than 100 µM; in the experiment on NCI/ADR-RES ovarian it was 7.3 µM; with UACC-257 melanoma, 90.9 µM; in the experiment with SW-620 colon, 3.17 µM; in the experiment with 786-0 renal it was 5.39 µM. Also, the TGI is 21.3 µM in the experiment with UO-31 renal, greater than 100 µM in the experiment with A549 NSCLC, greater than 100 µM in the experiment with RPMI-8226 leukemia and 7.36 µM in the experiment on HCC-2998 colon.

In the case of `CSc1nc2sc3c(c2c(=O)n1-c1ccc(C(C)C)cc1)CCC(=O)C3`, the GI50 was 3.11 µM in the experiment with MALME-3M melanoma; 2.42 µM in the experiment on CCRF-CEM leukemia; 2.36 µM in the experiment on NCI/ADR-RES ovarian; 3.21 µM in the experiment on UACC-257 melanoma; 2.23 µM in the experiment on SW-620 colon; 3.06 µM in the experiment on 786-0 renal. The GI50 with UO-31 renal is 1.57 µM; in the experiment on A549 NSCLC, 3.77 µM; in the experiment on RPMI-8226 leukemia, 2.1 µM; in the experiment with HCC-2998 colon it was 2.47 µM. Also, the TGI in the experiment with MALME-3M melanoma turned out to be 8.25 µM; with CCRF-CEM leukemia, 6.42 µM; with NCI/ADR-RES ovarian, 5.13 µM; in the experiment on UACC-257 melanoma, 9.81 µM; in the experiment with SW-620 colon, 4.56 µM; with 786-0 renal, 9.79 µM. Further, the TGI with UO-31 renal came out at 3.26 µM; with A549 NSCLC it was 20.7 µM; in the experiment on RPMI-8226 leukemia it was 5.07 µM; in the experiment with HCC-2998 colon, 5.02 µM.

Regarding `CCc1cccc(C)c1NC(=O)c1sc2nc3c(cc2c1N)C(=O)CCC3`, the GI50 with MALME-3M melanoma is 0.685 µM; in the experiment on CCRF-CEM leukemia, 0.407 µM; in the experiment with NCI/ADR-RES ovarian, 0.768 µM; with UACC-257 melanoma, 12.5 µM; in the experiment on SW-620 colon, 0.4 µM; in the experiment on 786-0 renal, 0.734 µM. Moreover, the GI50 in the experiment on UO-31 renal was 2.25 µM; with A549 NSCLC, 0.652 µM; in the experiment on RPMI-8226 leukemia it was 1.06 µM; in the experiment on HCC-2998 colon, 1.75 µM. Also, the TGI with MALME-3M melanoma was 98.8 µM; with CCRF-CEM leukemia it was greater than 35.4 µM; in the experiment with NCI/ADR-RES ovarian, greater than 100 µM; with UACC-257 melanoma it was 76.1 µM; in the experiment on SW-620 colon, greater than 100 µM; in the experiment on 786-0 renal, greater than 100 µM. For the same molecule, the TGI with UO-31 renal is 99.8 µM; in the experiment on A549 NSCLC, greater than 100 µM; in the experiment on RPMI-8226 leukemia, greater than 24 µM; in the experiment with HCC-2998 colon, greater than 100 µM.

As for `COc1cc2nc(-c3cc(F)ccc3O)nc(N[C@@H]3CNC[C@H]3C(C)(C)O)c2cc1OC`, the GI50 was 1.78 µM in the experiment on MALME-3M melanoma; 2.29 µM in the experiment on CCRF-CEM leukemia; 2.31 µM in the experiment on NCI/ADR-RES ovarian; 1.69 µM with UACC-257 melanoma; 1.82 µM in the experiment on SW-620 colon; 1.44 µM in the experiment with 786-0 renal. Moreover, the GI50 is 1.56 µM with UO-31 renal, 1.74 µM with A549 NSCLC, 2.15 µM with RPMI-8226 leukemia and 1.92 µM with HCC-2998 colon. Besides, the TGI in the experiment on MALME-3M melanoma was 3.24 µM; in the experiment on CCRF-CEM leukemia, 7.3 µM; in the experiment on NCI/ADR-RES ovarian it was 6.09 µM; with UACC-257 melanoma, 3.15 µM; with SW-620 colon, 3.39 µM; in the experiment with 786-0 renal, 2.92 µM. Besides, the TGI in the experiment on UO-31 renal turned out to be 3.21 µM; in the experiment with A549 NSCLC, 3.51 µM; in the experiment with RPMI-8226 leukemia it was 5.14 µM; with HCC-2998 colon it was 3.47 µM.

In the case of `c1ccc2c(c1)Nc1ccncc1S2`, the GI50 in the experiment on MALME-3M melanoma was 28.2 µM; in the experiment on CCRF-CEM leukemia, 28.2 µM; with NCI/ADR-RES ovarian, 21.4 µM; with UACC-257 melanoma, 31.1 µM; in the experiment with SW-620 colon, 21.2 µM; in the experiment with 786-0 renal, 28.8 µM. Also, the GI50 in the experiment on UO-31 renal was 12.7 µM; in the experiment on A549 NSCLC, 26.3 µM; in the experiment with RPMI-8226 leukemia, 17 µM; in the experiment with HCC-2998 colon, 27.9 µM. The TGI is 89.8 µM with MALME-3M melanoma; greater than 100 µM in the experiment with CCRF-CEM leukemia; greater than 100 µM with NCI/ADR-RES ovarian; greater than 100 µM in the experiment on UACC-257 melanoma; 92.6 µM in the experiment with SW-620 colon; greater than 100 µM with 786-0 renal. Further, the TGI with UO-31 renal was 74 µM; with A549 NSCLC it was greater than 100 µM; in the experiment on RPMI-8226 leukemia it was 78.1 µM; with HCC-2998 colon, greater than 100 µM.

Consider `COC1C(O)C(CO)OC(OC2C(O)COC(OC3C(C)OC(OC4C(O[C@H]5CC[C@@]6(C)C(CC=C7[C@H]6CCC68C(=O)O[C@@](C)(CCCC(C)C)[C@H]6[C@@H](OC(C)=O)C[C@@]78C)C5(C)C)OCC(OS(=O)(=O)O)C4O)C(OC4OCC(O)C(O)C4O)C3O)C2O)C1O` (stereo not given in full), for which the GI50 in the experiment with MALME-3M melanoma is 0.242 µM; with CCRF-CEM leukemia, 0.225 µM; in the experiment on NCI/ADR-RES ovarian, 0.207 µM; in the experiment with UACC-257 melanoma, 1.51 µM; in the experiment with SW-620 colon it was 0.0952 µM; in the experiment on 786-0 renal, 0.134 µM. Besides, the GI50 with UO-31 renal was 0.2 µM; in the experiment on A549 NSCLC it was 0.0568 µM; in the experiment on RPMI-8226 leukemia, 0.163 µM; in the experiment with HCC-2998 colon it was 0.13 µM. For the same molecule, the TGI in the experiment with MALME-3M melanoma stood at 0.671 µM; in the experiment with CCRF-CEM leukemia it was 0.775 µM; in the experiment with NCI/ADR-RES ovarian, 0.63 µM; with UACC-257 melanoma it was 3.54 µM; in the experiment with SW-620 colon it was 0.272 µM; in the experiment with 786-0 renal, 0.349 µM. In addition, the TGI was 0.746 µM with UO-31 renal, 0.209 µM in the experiment on A549 NSCLC, 0.402 µM in the experiment with RPMI-8226 leukemia and 0.391 µM in the experiment on HCC-2998 colon.

On to `N#CCCN1C/C(=C/c2ccc(Cl)cc2)C(=O)/C(=C/c2ccc(Cl)cc2)C1`, for which the GI50 in the experiment on MALME-3M melanoma was 2.24 µM; with CCRF-CEM leukemia it was 0.396 µM; in the experiment on NCI/ADR-RES ovarian it was 3.4 µM; in the experiment with UACC-257 melanoma, 2.05 µM; with SW-620 colon it was 0.338 µM; in the experiment on 786-0 renal, 0.868 µM. The GI50 in the experiment on UO-31 renal is 1.39 µM; with A549 NSCLC, 1.89 µM; in the experiment on RPMI-8226 leukemia it was 0.255 µM; in the experiment on HCC-2998 colon, 1.84 µM. Moreover, the TGI with MALME-3M melanoma stood at 5.22 µM; with CCRF-CEM leukemia, 2.88 µM; in the experiment with NCI/ADR-RES ovarian, 52.2 µM; with UACC-257 melanoma it was 4.38 µM; with SW-620 colon, 1.15 µM; with 786-0 renal, 2.77 µM. Also, the TGI stood at 2.77 µM in the experiment with UO-31 renal, 10.4 µM in the experiment with A549 NSCLC, 0.795 µM in the experiment on RPMI-8226 leukemia and 3.33 µM in the experiment with HCC-2998 colon.
